Measured values: patent US20130338092A1, “COMPOUNDS AND METHODS FOR TARGETING LEUKEMIC STEM CELLS” (The Broad Institute, Inc., priority 2011, published 2013)
“Also recorded” adds a separate entry of the source. Like-named read-outs stand apart in the source and are kept apart here.

Columns and labels:
normal HSPCs = experiment: Normal HSPC coculture on primary MSC stroma; conditions: for IC50: Mus musculus
Protocol: The material was cleaned, crushed and sequentially passed through 100 and 70 μM filters (Falcon). […] The biotin-labeled cells were spun down, resuspended in 0.5% FBS in PBS, and incubated for 15-30 minutes at 4° C. with agitation with 1 mL of Dynabead M-280 streptavidin-linked magnetic beads per 4 mice. The bead-linked cells were depleted using magnetic separation and rinsed once. The lineage- and CD48-depleted cell fraction was labeled with streptavidin-APC-Cy7 antibody from BD Biosciences and c-kit-APC, Sca-1-FITC, CD48-Pacific Blue, and CD150 PE-Cy7 antibodies from eBioscience. DsRed-positive lineage-Sca-1+c-kit+CD48− HSCs were sorted using a FACS DiVa or FACS ARIA (BD Biosciences).
A total of 20 μL of 20 μg/mL fibronectin (Millipore) in PBS was added to each well of a 384-well clear-bottomed black tissue-culture treated plate (Corning) and incubated for 30-120 minutes at 33° C. or 37° C. […] The fibronectin solution was removed from each well using a 24-channel wand aspirator; then 30 μL of BMSC solution was added to plate 2000 BMSCs/well. […] Each plate was covered with a sterile rayon breathable membrane (VWR) and plastic lid, and then spun at 500 rpm (approximately 60× gravity) with slow braking. The plates were incubated at room temperature for 60-90 minutes before incubation at 33° C. with 5% CO2 for 3 days prior to HSC addition.
The sorted HSCs, SLAMs and progenitor cells were resuspended in phenol-red free alpha-MEM with 20% FBS and diluted to 10,000 cells/mL. A total of 20 μL of cell solution containing 200 hematopoietic cells was added to each well using a multichannel pipettor or liquid-dispensing system. Each plate was covered with a sterile rayon breathable membrane (VWR) and plastic lid, and then spun at 500 rpm (approximately 60×gravity) with slow braking. The plates were incubated at room temperature for 60-90 minutes before incubation at 33° C. with 5% CO2 overnight prior to compound or cytokine addition.
Image analysis was performed using MetaXpress software from MDC and CellProfiler software from the Broad Institute of Harvard and MIT.
Compound addition and incubation was performed as described for the LSC coculture screen above, but without a media change or readdition of the compound.
The selected set was screened in 8-point dose against both normal HSPCs with a high number of replicates (6) and LSC-enriched leukemia cells, each cocultured on primary MSCs.

primary leukemia cells = experiment: Annexin V apoptosis assay; assay type: cell-based, murine; conditions: 22 hours in suspension, compared to DMSO control
Protocol: Compounds were added to a final DMSO concentration of 0.02%. […] The cells were analyzed by flow cytometry on a FacsCanto II (Becton Dickinson).

[1] = system: CD34+ cells from primary human leukemia samples; experiment: Human CD34+ CAFC assay, leukemia samples; assay type: cell-based; conditions: 1.25 μM to 10 μM, 18 hours exposure, read at 5 weeks (2 weeks FLT3-ITD)
Protocol: Samples were centrifuged over Ficoll-Paque PLUS (GE Heathcare) step gradient (2000×g for 30 min in 50 ml tubes) to obtain mononuclear cells and then CD34^+ cells were selected with immunomagnetic beads (MACS Cell Separation, Miltenyi Biotec, Auburn, Calif.), except in one case, NPM1 mutation, which was CD34^− by flow cytometry and mononuclear cells were used. 50,000 cells were placed into 12.5 cm^2 flasks (Becton Dickinson Labware, Franklin Lakes, N.J.) in co-culture with the MS-5 mouse bone marrow-derived stromal cell line (kindly provided by Dr. Itoh, Dept. of Biology, Niigata University, Japan) and DMSO control and the number of final cobblestones was later read. The number of cells needed to form one cobblestone was then placed in triplicate for each sample with each drug at serial drug dilutions from 10 μM to 0.63 μM as well as with DMSO 0.5% for control purposes and incubated overnight with Iscove's modified Dulbecco's medium (IMDM, in house media preparation laboratory)+20% fetal calf serum (FCS, Atlanta Biologicals, Lawrenceville, Ga.) with glutamine (2 mM/ml, in house media preparation laboratory), monothioglycerol (MTG, 10 nM/ml, Sigma Cell Culture, St. Louis Mo.), c-Kit ligand (20 ng/ml, Amgen, Thousand Oaks, Calif.), Flt ligand (20 ng/ml, Imclone, Bridgewater, N.J.), TPO (20 ng/ml, Amgen) and IL-3 (20 ng/ml, Amgen). Cells were then washed to remove the drugs and placed into 96 well cell culture plates (Becton Dickinson) with α-MEM (in house media preparation laboratory)+12.5% FCS+12.5% horse serum (Gemini Bio-products, West Sacramento, Calif.) with glutamine, MTG, hydrocortisone (1 nM/ml, Sigma) and IL-3 in co-culture with MS-5 stromal cells. […] The same procedure was followed with normal CD34+ cells obtained from cord blood.
The cells were treated with compound or DMSO carrier control at four doses (ranging from 1.25 μM to 10 μM) in triplicate for 18 hours, washed thoroughly, then plated onto human stromal MS-5 monolayers (Itoh, K., Tezuka, H., Sakoda, H., Konno, M., Nagata, K., Uchiyama, T., Uchino, H., and Mori, K. J. (1989). Exp Hematol 17, 145-153.) and maintained in coculture with one subsequent half media change. After 5 weeks (2 weeks for the FLT3-ITD sample (Moore, M. A., Dorn, D. C., Schuring a, J. J., Chung, K. Y., and Morrone, G. (2007). Exp Hematol 35, 105-116.)), cobblestone formation was determined, and dose-response curves against the 7 cell types were generated for each compound.

[2] = system: LSC-enriched leukemia cells (MLL-AF9); experiment: Leukemia coculture assay on primary MSC stroma (cobblestoning readout); assay type: cell-based, murine; conditions: for IC50: read-out: Leukemia IC50; for leukemia-selective activity in coculture vs normal HSPCs: primary MSC stroma
Protocol: Whole bone marrow were harvested from C57/B16 actin-dsRed mice (006051, Jackson Labs), subjected to red blood cell lysis (Qiagen), then granulocyte-macrophage progenitors (GMPs) were isolated by Fluorescence-activated cell sorting (FACsAria, Becton Dickinson). GMPs were spinfected twice (2500 rpm, 90 min, 37 C) in the presence of mIL3 (10 ng/ml, Peprotech), mIL6 (10 ng/ml, Peprotech), and mSCF (10 ng/ml, Peprotech) with pMSCV-MLL-AF9-Neo virus then transplanted into lethally irradiated C57/B16 recipients. After disease onset, the spleens were harvested and transplanted into sublethally irradiated secondary recipients. Subsequent transplantation of bulk spleen cells from leukemic secondary mice was repeated twice to generate leukemic GMPs from quaternary transplant leukemic mouse bone marrow.
Long bones and hips from moribund leukemic mice were harvested, cleaned, crushed and sequentially passed through 100 and 70 μM filters (Falcon). The cells were RBC lysed (Qiagen) and stained in PBS+2% FBS (Omega). Antibodies included lineage markers CD4, CD8, Gr1, Mac1, IL-7R, and Ter119 (Caltag), c-kit (17-1172-83, eBioscience), Sca-1 (11-5981-82, eBioscience), CD34 (11-0341-85, eBioscience), and CD16/32 (25-0161-82, eBioscience). Hoechst 33258 (H21491, Invitrogen) was also used, to identify live cells. Cells were sorted on a FacsAria II (Becton Dickinson).
The humerii, tibiae, ilia, femurs, and spine were isolated from actin-GFP mice (000329, Jackson Lab) crushed using a mortar and pestle, washed in phosphate-buffered saline (PBS) without magnesium and calcium (Gibco) with 0.5% fetal bovine serum (FBS) (HyClone) and filtered through a 70-μm filter. Red blood cell lysis was performed with ammonium-chloride/potassium-chloride (ACK) lysing buffer (Lonza), the cells were resuspended in α-MEM (StemCell Technologies), 20% FBS (HyClone) and 1× Pen-Strep (CellGro), plated in 25 ml in 150-cm^2 tissue-culture flasks (three per mouse), and incubated at 33° C. with 5% CO2. After 2-3 days, the medium was replaced with fresh α-MEM with 20% FBS. After 8-14 days, the cells were rinsed, split by trypsinization (CellGro), pooled, filtered through a 70 μm filter, replated at 3-4 million cells per 150-cm^2 tissue-culture flask, and grown at 33° C. with 5% CO2 for 3-4 days until nearly confluent. The cells were trypsinized, filtered, and resuspended in 0.5% FBS in PBS with biotin-conjugated anti-mouse CD105 antibody (eBioscience) for 15-30 minutes at room temperature. The CD105-labeled cells were incubated with Dynabead M-280 streptavidin-linked magnetic beads (Invitrogen) for 15-30 minutes at 4° C. with agitation and isolated using magnetic separation and rinsed once. The CD105^+ cell fraction was replated at 1-2 million cells per 150-cm^2 tissue-culture flask and incubated at 33° C. with 5% CO2 for 2-3 days.
The MSCs were trypsinized, filtered, diluted in phenol-red-free alpha-MEM with 20% FBS, and plated (30 μl for a total of 2000 cells per well) on 384-well clear-bottomed black tissue-culture treated plate (3712, Corning) pretreated with fibronectin (Millipore). Plate covers (VWR) were added, the plates were spun and at 500 with slow braking, and the cells were incubated at room temperature for 60-90 minutes before incubation at 33° C. with 5% CO2 for 3 days prior to hematopoietic cell plating. […]

MLL-AF9 LSC = experiment: Triple coculture (LSCs and HSPCs on primary MSCs), leukemia cells; assay type: cell-based, murine; conditions: for leukemic cells in triple coculture: 200 nM lovastatic acid or 1 μM BRD7116, 5 days; for IC50: Mus musculus, MLL-AF9, murine LSCs in triple coculture with HSPCs on MSCs
Protocol: As in the original assay approach, treatment of these triple cocultures began one day after hematopoietic cell plating and was assessed 5 days later.
An in vitro therapeutic index was determined for each compound, a comparative measure of the potential for anti-LSC efficacy relative to the potential for dose-limiting toxicities to normal HSCs (myeloablation), or to normal progenitors (myelosuppression). Specifically, ratios were created using the IC50s for primary murine HSPCs in triple coculture as the numerator, and the IC50s for primary murine leukemia inhibition in triple coculture as the denominator, toward assessing the potential for HSC harm relative to LSC inhibition.

[3] = read-out: Normal IC50, HSPCs on primary MSC stroma, 8-point dose
[4] = Mus musculus, MLL-AF9, LSCs on primary MSC stroma, 8-point dose

SMILES | IC50 (normal HSPCs; [3]) | IC50 (normal HSPCs; read-out: Normal IC50, statins (acid form), HSPCs cocultured on primary MSC stroma) | effect on normal HSPCs in coculture (normal HSPCs; up to 20 μM, the maximum dose tested) | induction of apoptosis (Annexin V) (primary leukemia cells) | leukemia cobblestone inhibition (human CAFC) [1] | IC50 ([2]; LSCs on primary MSC stroma, 8-point dose) | IC50 [2, 4] | IC50 ([2]; Mus musculus, MLL-AF9, statins (acid form), LSCs cocultured on primary MSC stroma) | leukemia-selective activity in coculture vs normal HSPCs [2] | leukemic cells in triple coculture (MLL-AF9 LSC) | leukemic cells in triple coculture (MLL-AF9 LSC; listed as lovastatin) | IC50 (MLL-AF9 LSC)
CCC(C)C(=O)OC1CC(C)C=C2C=CC(C)C(CCC(O)CC(O)CC(=O)O)C21 (stereo not shown) [Lovastatic acid] | > 20000 nM | > 10000 nM | minimal toxicity | underwent apoptosis | leukemia cobblestone inhibition was observed across all six primary leukemia samples | 167 nM | < 200 nM | < 200 nM | leukemia-selective activity | selectively cleared the dsRed^+ leukemic cells | selective loss of the leukemia population | 100 nM
CC1(C)C(C(=O)Nc2ccc(S(=O)(=O)c3ccc(NC(=O)C4C(C)(C)C4(C)C)cc3)cc2)C1(C)C [BRD7116] | > 20000 nM |  |  | mild induction of apoptosis | leukemia cobblestone inhibition was observed across all six primary leukemia samples |  | 204 nM |  | selective loss of the LSC-enriched leukemia cells | selective loss of the leukemia population; also recorded: selectively cleared the dsRed^+ leukemic cells |  | 500 nM
